We go through six compounds from patent US20050049197A1, “Induction of immune response against desired determinants” (Epimmune Inc., priority 1993, published 2005).

“And” between values parts separate entries of the source, which are not always exact repeats. Equal values may be shown once. Bounds are passed on as bounds.

One assay deals with DR2w2b. The arrangement: species or system human. The following applies: read-out: Binding Activity DR2wB2, IC50.
For a further assay, the target named is DR4w4 (Homo sapiens, UniProt P01903+P01911, A100K/A169T/F76Y/I96L/K127E/L162R/M171V/N62H/P40V/Q125Y/R42H/S133A/S149N/S66Y/V115G/V209L/W38E). The assay is described as follows: biochemical. Format: binding.
The target of a further assay is DR1 (Homo sapiens, UniProt P01903+P01911, A100R/D57E/F55L/F60I/F76Y/I96L/L162R/M171V/P40L/Q125E/R42F/V115G/Y59C). The assay is described as follows: biochemical. Format: binding.
A further assay has as its system DR5. The arrangement: species or system human. The settings on record: read-out: Binding Activity DR5, IC50.
For another assay, the system named is DQ3.1. Also noted: species or system human. The settings on record: read-out: Binding Activity DQ3.1, IC50.
Assay [1] concerns PBMC from normal individuals. Description: In vitro T cell proliferative responses of human PBMC ([3H]thymidine incorporation). Type of assay: cell-based. The settings on record: for AVERAGE S.I. / AVERAGE ΔMAX CPM: average of 5 donors; for X144 (Δmax cpm) / X144 S.I.: donor X144; for X162 (Δmax cpm) / X162 S.I.: donor X162; for X349 (Δmax cpm) / X349 S.I.: donor X349; for X372 (Δmax cpm) / X372 S.I.: donor X372; for X460 (Δmax cpm) / X460 S.I.: donor X460.

In the next assay the target is DRw53 (Homo sapiens, UniProt P01903+P13762). The assay is described as follows: biochemical. Type of assay: binding.
The subject of a further assay is DR3. Also noted: species or system human. The settings on record: read-out: Binding Activity DR3, IC50.
For a further assay, the target named is IAk (Mus musculus, UniProt P01910+P06343). Description: biochemical.
A further assay relates to P. yoelii sporozoites. The assay is described as follows: Inhibition of liver stage development assay (ILSDA), mouse hepatocytes infected with P. yoelii sporozoites. Format: cell-based. The following applies: sera of immunized mice, mouse hepatocytes. As to the method:
(§1) In certain experiments, peptides were emulsified in complete Freund's adjuvant (CFA) and injected subcutaneously (S.C.) at the base of the tail in 100 μl volume containing 100 μg of peptide. Mice were boosted with 100 μg of peptide emulsified in 100 μl of incomplete Freund's adjuvant (IFA) 1 month later. Mice were bled just prior to boosting, and 2 weeks after boosting.
All cell culture reagents were obtained from quality Biological, Gaithersburg, Md. The slides were incubated overnight at 37° C. in a 5% CO2/95% air environment. The medium was changed the following day and fresh medium containing dexamethasone (7×10^−5) was added to the cultures.
(§2) The 17XNL (nonlethal) strain of P. yoelii or the NF54 strain of P. falciparum were used for murine and human hepatocyte in vitro infections, respectively.
(§3) Briefly, 25 μl of the serum samples, diluted to 2× their final concentration, were added to triplicate chamber-slide wells. P. yoeilli or P. falciparum sporozoites, 75,000/well, were then added in a volume of 25 μl to the mouse or human hepatocyte cultures respectively. The cultures were incubated for 3 h, then washed extensively with fresh medium to remove unattached sporozoites. The infected hepatocytes were then incubated for a further 2 (P. yoelii) or 5 days (P. falciparum) with the medium being changed each day of culture. The slides were fixed and immunostained with either a P. yoelii- or P. falciparum-specific monoclonal antibody. Schizonts were counted from the triplicate cultures and the percent inhibition determined as follows: control−test/control×100. Sera from mice injected with CFA (first dose) and IFA (second and third doses) served as the negative controls.

Assay [2] concerns P. falciparum sporozoites. Description: Inhibition of liver stage development assay (ILSDA), human hepatocytes infected with P. falciparum sporozoites. The following applies: sera of C57BL/6 mice immunized with peptide in CFA/IFA, final dilution 1:100. Format: cell-based. On the procedure: as §1
Human hepatocytes were isolated from nontransplantable liver tissue donated for research. […] The hepatocytes were allowed to attach and spread overnight with the media being changed the following day.
as §2, §3

The subject of assay [3] is air-dried P. yoelii sporozoites. The settings on record: in vivo.
Assay [4] has as its system P. yoelii 17XNL sporozoites. The following applies: in vivo.

In the case of `CC(C)C[C@H](NC(=O)[C@@H](NC(=O)[C@H](Cc1c[nH]c2ccccc12)NC(=O)[C@H](C)NC(=O)[C@H](C)NC(=O)[C@@H](NC(=O)[C@H](CC1CCCCC1)NC(=O)[C@H](CCCCN)NC(=O)[C@@H](C)N)C(C)C)[C@@H](C)O)C(=O)N[C@@H](CCCCN)C(=O)N[C@@H](C)C(=O)N[C@@H](C)C(=O)N[C@H](C)C(N)=O` [965.10], the IC50 with DR2w2b stood at 5.6 nM. Further, at DR4w4, inhibition was half-maximal at 2.8 nM (IC50). Moreover, the IC50 against DR1 is 1.2 nM. Moreover, the IC50 in the assay with DR5 stood at 11.1 nM. Also, in the assay on DQ3.1, the IC50 was determined as 25 nM. In [1] (2nd Stimulation), the “AVERAGE S.I.” value is 3.9, the “AVERAGE ΔMAX CPM” value came to 25767 cpm, the “X144 (Δmax cpm)” value was 11663 cpm and the “X144 S.I.” value stood at 1.8. Besides, in assay [1] (2nd Stimulation), the “X162 (Δmax cpm)” value was found to be 20693 cpm, the “X162 S.I.” value was found to be 7.9, the “X349 (Δmax cpm)” value amounted to 22133 cpm and the “X349 S.I.” value was 3.5. Also, in [1] (2nd Stimulation), the “X372 (Δmax cpm)” value worked out at 44414 cpm, the “X372 S.I.” value was 3.2, the “X460 (Δmax cpm)” value came to 29933 cpm and the “X460 S.I.” value is 3.3. Moreover, in assay [1] (3rd Stimulation), the “AVERAGE S.I.” value is 11.5, the “AVERAGE ΔMAX CPM” value came to 31002 cpm, the “X144 (Δmax cpm)” value is given as 33159 cpm and the “X144 S.I.” value is reported as 14. Further, in assay [1] (3rd Stimulation), the “X162 (Δmax cpm)” value amounted to 34548 cpm, the “X162 S.I.” value was 11, the “X349 (Δmax cpm)” value stood at 38931 cpm and the “X349 S.I.” value is 3.5. For the same compound, in assay [1] (3rd Stimulation), the “X372 (Δmax cpm)” value is reported as 36995 cpm, the “X372 S.I.” value came to 15, the “X460 (Δmax cpm)” value stood at 11376 cpm and the “X460 S.I.” value was found to be 15.
Take `CC(C)C[C@H](NC(=O)[C@@H](NC(=O)[C@H](CCCCN)NC(=O)[C@H](C)NC(=O)[C@H](C)NC(=O)[C@@H](NC(=O)[C@H](CC1CCCCC1)NC(=O)[C@H](CCCCN)NC(=O)[C@@H](C)N)C(C)C)[C@@H](C)O)C(=O)N[C@@H](CCCCN)C(=O)N[C@@H](C)C(=O)N[C@@H](C)C(=O)N[C@H](C)C(N)=O` [965.14]: the IC50 in the assay on DR2w2b amounted to 8 nM. Further, at DRw53, the IC50 stood at 52.8 nM. For the same compound, the IC50 in the assay on DR3 was determined as 781 nM. The compound also came in with an IC50 against DR4w4 of 7.4 nM. The IC50 with DR5 amounted to 3.4 nM. Also, the IC50 in the assay on DQ3.1 is > 10000 nM. In addition, in [1] (2nd Stimulation), the “AVERAGE S.I.” value came out at 1.5, the “AVERAGE ΔMAX CPM” value stood at 5523 cpm, the “X144 (Δmax cpm)” value was found to be 3570 cpm and the “X144 S.I.” value is 1.1. Also, in assay [1] (2nd Stimulation), the “X162 (Δmax cpm)” value was found to be 4655 cpm, the “X162 S.I.” value amounted to 2.1, the “X349 (Δmax cpm)” value was found to be 4421 cpm and the “X349 S.I.” value turned out to be 1.3. Besides, in assay [1] (2nd Stimulation), the “X372 (Δmax cpm)” value is listed as 10608 cpm, the “X372 S.I.” value turned out to be 1.4, the “X460 (Δmax cpm)” value is listed as 4365 cpm and the “X460 S.I.” value is listed as 1.4. In [1] (3rd Stimulation), the “AVERAGE S.I.” value came out at 2, the “AVERAGE ΔMAX CPM” value came to 10583 cpm, the “X144 (Δmax cpm)” value is 4319 cpm and the “X144 S.I.” value is recorded as 2.3. In addition, in assay [1] (3rd Stimulation), the “X162 (Δmax cpm)” value came out at 10734 cpm, the “X162 S.I.” value is 1.7, the “X349 (Δmax cpm)” value came out at 17849 cpm and the “X349 S.I.” value was 2. In assay [1] (3rd Stimulation), the “X372 (Δmax cpm)” value came out at 19140 cpm, the “X372 S.I.” value came to 2.1, the “X460 (Δmax cpm)” value was determined as 874 cpm and the “X460 S.I.” value is 2.
`CC(C)C[C@H](NC(=O)[C@@H](NC(=O)[C@H](Cc1c[nH]cn1)NC(=O)[C@H](C)NC(=O)[C@H](C)NC(=O)[C@@H](NC(=O)[C@H](CC1CCCCC1)NC(=O)[C@H](CCCCN)NC(=O)[C@@H](C)N)C(C)C)[C@@H](C)O)C(=O)N[C@@H](CCCCN)C(=O)N[C@@H](C)C(=O)N[C@@H](C)C(=O)N[C@H](C)C(N)=O` [965.15]: the IC50 in the assay on DR2w2b came to 5.4 nM. Further, the IC50 on DRw53 came out at 79.2 nM. The IC50 in the assay on DR3 was found to be 1390 nM. Also, in the assay with DR5, the IC50 was 29.9 nM. Besides, the IC50 in the assay with DQ3.1 is > 10000 nM. Further, in assay [1] (2nd Stimulation), the “AVERAGE S.I.” value was determined as 1.8, the “AVERAGE ΔMAX CPM” value was found to be 7920 cpm, the “X144 (Δmax cpm)” value is 7179 cpm and the “X144 S.I.” value stood at 1.4. Moreover, in assay [1] (2nd Stimulation), the “X162 (Δmax cpm)” value turned out to be 8461 cpm, the “X162 S.I.” value was 3.4, the “X349 (Δmax cpm)” value turned out to be 10848 cpm and the “X349 S.I.” value was found to be 1.8. Moreover, in [1] (2nd Stimulation), the “X372 (Δmax cpm)” value stood at 10011 cpm, the “X372 S.I.” value is 1.3, the “X460 (Δmax cpm)” value stood at 3100 cpm and the “X460 S.I.” value is 1.2. In [1] (3rd Stimulation), the “AVERAGE S.I.” value worked out at 2.5, the “AVERAGE ΔMAX CPM” value is 15462 cpm, the “X144 (Δmax cpm)” value stood at 13055 cpm and the “X144 S.I.” value is recorded as 2.4. Further, in assay [1] (3rd Stimulation), the “X162 (Δmax cpm)” value amounted to 12309 cpm, the “X162 S.I.” value is 1.6, the “X349 (Δmax cpm)” value is on record as 20653 cpm and the “X349 S.I.” value was 2.4. Further, in assay [1] (3rd Stimulation), the “X372 (Δmax cpm)” value is 30810 cpm, the “X372 S.I.” value turned out to be 4.7, the “X460 (Δmax cpm)” value is given as 486 cpm and the “X460 S.I.” value amounted to 1.2.
In the case of `CC[C@H](C)[C@H](NC(=O)CNC(=O)[C@H](Cc1ccc(O)cc1)NC(=O)[C@H](CC(=O)O)NC(=O)[C@@H](NC(=O)[C@H](CO)NC(=O)CNC(=O)[C@H](CC(=O)O)NC(=O)[C@@H](NC(=O)[C@H](CC(N)=O)NC(=O)[C@@H](N)Cc1ccc(O)cc1)[C@@H](C)O)[C@@H](C)O)C(=O)N[C@@H](CC(C)C)C(=O)N[C@@H](CCC(N)=O)C(=O)N[C@H](C(=O)N[C@@H](CC(N)=O)C(=O)N[C@@H](CO)C(=O)N[C@@H](CCCNC(=N)N)C(=O)O)[C@@H](C)CC` [HEL 46-61], it took 20 nM to reach half-maximal inhibition at IAk (IC50).
Take (NANP)4 [PfB]: the “% Inhibition” value with P. yoelii sporozoites (dilution 1:100) is 13.4%; in the assay on P. yoelii sporozoites (dilution 1:200) it was 6.2%; in [2], 80% and 79.7%. For the same compound, the “Mean schizonts/well + S.D.” value was determined as 71 ± 7 schizonts/well with P. yoelii sporozoites (dilution 1:100) and 76 ± 7 schizonts/well in the assay with P. yoelii sporozoites (dilution 1:200). Also, the “Mean schizonts/well ± S.D.” value in assay [2] stood at 15.6 ± 8.7 schizonts/well.
Turning to G(QGPGAP)4 [PyB], the “levels of antibodies against sporozoites and the PyCSP (immunogenicity, in words)” value in assay [3] is given as “poorly immunogenic”. In the assay with P. yoelii sporozoites (dilution 1:100), the “% Inhibition” value turned out to be 50% and the “Mean schizonts/well + S.D.” value was 41 + 3.8 schizonts/well. For the same compound, in the assay on P. yoelii sporozoites (dilution 1:200), the “% Inhibition” value is 43.2% and the “Mean schizonts/well + S.D.” value is given as 46 + 4 schizonts/well. Besides, in assay [4], the “% Protected” value was 12.5% and the Infected/challenged is listed as 7/8. For the same compound, the “Mean schizonts/well ± S.D.” value in [2] is 70 ± 14 schizonts/well.
